The values below are quoted from earlier work in patent US20150320096A1, “Dietary Supplement” (MC Corp., priority 2013, published 2015).

Where only a bound is given, the exact number is not on record here.

The test system of one data set is glut-4 transporters. The note with it: muscle tissue.
The conditions of data set [1]: oral.
The conditions of data set [2]: oral administration.

With `O=C(O)CCCCC1CCSS1` (stereo not drawn) [ALA, Alpha-Lipoic Acid], the “increase in the number of glut-4 transporters on the outside of the muscle cells” value with glut-4 transporters was not above 50%.

As for `C/C1=C2/[N-][C@H]([C@H](CC(N)=O)[C@@]2(C)CCC(=O)NC[C@@H](C)OP(=O)([O-])O[C@H]2[C@@H](O)[C@@H](n3cnc4cc(C)c(C)cc43)O[C@@H]2CO)[C@]2(C)N=C(/C(C)=C3N=C(/C=C4N=C1[C@@H](CCC(N)=O)C\4(C)C)[C@@H](CCC(N)=O)[C@]\3(C)CC(N)=O)[C@@H](CCC(N)=O)[C@]2(C)CC(N)=O.[CH3-].[Co+3]` [Methylcobalamin], the “ingested dose absorbed by diffusion process” value in data set [1] is reported as “approximately 1%”. Moreover, the “burning sensations, numbness, loss of sensation, and muscle cramps” value in data set [2] was “subjective improvement”.

`COC1=C(OC)C(=O)C(C/C=C(\C)CC/C=C(\C)CC/C=C(\C)CC/C=C(\C)CC/C=C(\C)CC/C=C(\C)CC/C=C(\C)CC/C=C(\C)CC/C=C(\C)CCC=C(C)C)=C(C)C1=O` [coenzyme Q10, Coenzyme Q10]: for the setting “dietary supplementation”, the blood glucose levels result is on record as “significantly reduce” and the “hemoglobin A1C (HbA1C)” value is “lower”. Besides, the “increase of plasma coenzyme Q10” value (dietary supplementation, patients with diabetes) is recorded as “at least 3 fold”. For the same compound, under “patients with diabetes”, the blood pressure result was “significantly lowered” and the insulin requirements entry is reported as “reduce”.
